{"source": "patent US20240009191A1", "about": "“METHOD AND COMPOSITION FOR THE TREATMENT OF DISEASE” (DIMERIX BIOSCIENCE PTY LTD, priority 2019, published 2024)", "molecular_target": "T1, AT1R-CXCR2 heteromer (Homo sapiens, UniProt P25025+P30556)", "T1 sequence (P30556 1-359)": "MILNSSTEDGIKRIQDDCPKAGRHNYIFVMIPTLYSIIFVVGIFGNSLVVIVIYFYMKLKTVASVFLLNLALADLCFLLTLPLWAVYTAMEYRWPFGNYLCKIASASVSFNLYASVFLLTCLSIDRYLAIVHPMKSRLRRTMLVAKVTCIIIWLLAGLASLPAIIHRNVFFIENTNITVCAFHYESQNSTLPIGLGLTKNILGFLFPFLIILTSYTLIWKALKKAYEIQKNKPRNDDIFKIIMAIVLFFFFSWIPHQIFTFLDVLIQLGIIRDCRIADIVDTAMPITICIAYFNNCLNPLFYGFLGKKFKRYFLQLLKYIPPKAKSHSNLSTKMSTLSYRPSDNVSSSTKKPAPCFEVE", "T1 sequence (P25025 1-360)": "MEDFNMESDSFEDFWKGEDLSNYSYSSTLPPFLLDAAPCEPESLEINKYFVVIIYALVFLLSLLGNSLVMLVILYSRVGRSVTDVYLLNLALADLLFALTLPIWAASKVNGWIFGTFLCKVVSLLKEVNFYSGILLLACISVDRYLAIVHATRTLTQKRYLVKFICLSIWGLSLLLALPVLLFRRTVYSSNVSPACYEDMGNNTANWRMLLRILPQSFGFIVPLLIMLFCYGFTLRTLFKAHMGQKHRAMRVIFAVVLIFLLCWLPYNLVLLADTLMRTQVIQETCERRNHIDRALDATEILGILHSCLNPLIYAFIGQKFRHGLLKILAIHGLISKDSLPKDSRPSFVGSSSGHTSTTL", "test": "BRET trafficking of AT1R/Rluc8 (Venus/Kras, Rab5) with unlabelled CXCR2, pre-treatment with vehicle or antagonists/inverse agonists", "type": "cell-based", "conditions": "pre-treatment with vehicle, 100 nM AngII only or with 10 nM CXCL8", "method": "HEK293FT cells were seeded in 6-well plates at a density of approximately 700,000 cells/well and maintained at 37° C., 5% CO2 in Complete Media (DMEM containing 0.3 mg/ml glutamine, 100 IU/ml penicillin and 100 μg/ml streptomycin (Gibco/Thermo Fisher)) supplemented with 10% fetal calf serum (FCS; Bovogen). Transient transfections were carried out 24 h after seeding using FuGene6™ (Promega) according to manufacturer instructions. 24 h post-transfection, cells were washed with PBS, detached using 0.05% trypsin/0.53 mM EDTA, resuspended in HEPES-buffered phenol red free Complete Media containing 5% FCS and added to a poly-L-lysine-coated white 96-well microplate (Greiner Bio-One). 48 h post-transfection, bioluminescence resonance energy transfer (BRET) assays were carried out following pre-incubation of cells with EnduRen™ (Promega) at a final concentration of 30 μM, at 37° C., 5% CO2 for 2 h. BRET measurements were taken at 37° C. using the LUMlstar™ or CLARIOstar™ (BMG Labtech).\nFor antagonist/inverse agonist assays, cells were pre-incubated with EnduRen for 1.5 hours, followed by the addition of vehicle or antagonists/inverse agonists (10 μM) for another 30 minutes.\nThe BRET signal observed between interacting proteins is normalized by subtracting the background BRET ratio. […] In the following examples, the second calculation will be used and the signal is described as ligand-induced BRET′. Furthermore, for data shown in FIGS. 4 to 20, all data points in a given set are corrected relative to the final data point prior to agonist treatment, which is fixed to zero. In keys on FIGS. 7 to 20, “>” means “followed by after 50 minutes”, with agonists added at time zero on the x-axes.\nPrior to agonist treatment (added at 0 minutes), a baseline BRET signal was recorded for each of the combinations for 20 minutes. Data were calculated as ligand-induced BRET relative to the ‘vehicle followed by vehicle’ (veh>veh) data set.", "data": [{"substance": "Angiotensin II [AngII]", "values": [{"measurement": "proximity of AT1R/Rluc8 to Venus/Kras (BRET)", "setting": "FIG. 19A, 19B", "value": "marked reduction"}, {"measurement": "proximity of AT1R/Rluc8 to Venus/Rab5 (BRET)", "setting": "FIG. 20A, 20B", "value": "marked increase"}]}]}
